Molecules are shown by their SMILES. Read-outs that look alike come from different tables or passages of the source.

This passage reports IC50 results from patent publication US8912184B1, “Therapeutic and diagnostic methods” (Alzheimer's Institute of America, Inc., priority 2010, dated 2014).

This assay has as its system HCT116 cells. Put plainly: Nicotinic Acid Rescue Cytotoxicity Assay, first method: cytotoxicity to HCT116 cells in presence and absence of 10 μM nicotinic acid. It is filed as cell-based. Conditions: Homo sapiens, HCT-116, 72 h. Here is the method:
Additionally, Nicotinic Acid (NA) rescue of cytotoxicity of Nampt inhibitors was assessed by two distinct methods. In the first method, Nampt1 inhibitor cytotoxicity was evaluated in the presence and absence of exogenous nicotinic acid (NA) at a fixed concentration. […] Twenty four hours after cells were plated, the media was removed and replaced with media containing 10 μM nicotinic acid. Compounds were then immediately added. Cell viability was then assessed at 72 h.
Using the first of the two assays described above, the 90 compounds shown in Table 5, below, were tested for cytotoxicity towards Naprt1-proficient HCT116 cells, and for the ability of NA to block the observed cytotoxicity (or “rescue” the cells from the cytotoxic activity of the tested compound). The compounds listed are referred to by a unique rescue analysis example number (i.e., R1, R2 . . . R90) that is used as a reference number in Table 4, in which the results of the cytotoxicity and rescue assays are presented.

The mark [1] stands for this setting: absence of nicotinic acid, read-out: HCT116 72 h cytotoxicity.
The mark [2] stands for this setting: presence of 10 μM nicotinic acid, read-out: HCT116 72 h cytotoxicity with 10 μM Nicotinic Acid.

Take `C#CCN(Cc1ccccc1C(F)(F)F)c1ccc(C(=O)NCc2cccnc2)cc1` [Example R10, 4-{Prop-2-yn-1-yl[2-(trifluoromethyl)benzyl]amino}-N-(pyridin-3-ylmethyl)benzamide]: the IC50 is, setting by setting: under setting [1], 1110 nM; under setting [2], > 5000 nM.

As for `CC(C)CCN(Cc1ccccc1Cl)c1ccc(C(=O)NCc2cccnc2)cc1` [Example R42, 4-[(2-Chlorobenzyl)(3-methylbutyl)amino]-N-(pyridin-3-ylmethyl)benzamide], the IC50 is 387 nM under setting [1] and > 10000 nM under setting [2].

As to `O=C(Nc1ccc(C(=O)NCc2cccnc2)cc1)Nc1ccccc1-c1ccccc1` [Example R11, 4-[(Biphenyl-2-ylcarbamoyl)amino]-N-(pyridin-3-ylmethyl)benzamide], the IC50 under setting [1] turned out to be 424 nM and the IC50 under setting [2] is > 50000 nM.

Consider `O=C(NCc1cccnc1)Nc1ccc(NS(=O)(=O)c2ccccc2-c2ccccc2)nc1` [Example R90, N-(5-{[(Pyridin-3-ylmethyl)carbamoyl]amino}pyridin-2-yl)biphenyl-2-sulfonamide], for which the IC50 is 28.7 nM under setting [1] and > 5000 nM under setting [2].

For the molecule `O=C(NCc1cccnc1)Nc1ccc(NS(=O)(=O)c2ccc(F)cc2-c2ccccc2)cc1` [Example R68, 5-fluoro-N-(4-{[(pyridin-3-ylmethyl)carbamoyl]amino}phenyl)biphenyl-2-sulfonamide], the IC50 runs as follows: under setting [1], 2.1 nM; under setting [2], > 5000 nM.

`Cc1ccccc1-c1ccccc1CNc1ccc(C(=O)NCc2cccnc2)cc1` [Example R28, 4-{[(2′-Methylbiphenyl-2-yl)methyl]amino}-N-(pyridin-3-ylmethyl)benzamide]: the IC50 under setting [1] turned out to be 335 nM and the IC50 under setting [2] is 25000 nM.

`CC(C)=CCN(Cc1cc2c(=O)n(C)c(C)nc2cc1Cl)c1ccc(C(=O)NCc2cccnc2)cc1` [Example R51, 4-{[(7-Chloro-2,3-dimethyl-4-oxo-3,4-dihydroquinazolin-6-yl)methyl](3-methylbut-2-en-1-yl)amino}-N-(pyridin-3-ylmethyl)benzamide]: the IC50 is 9.5 nM under setting [1] and > 10000 nM under setting [2].

As for `O=C(NCCCCCCOc1ccc(Cl)cc1)Nc1ccc(F)c(F)c1` [Example R41, 1-[6-(4-Chlorophenoxy)hexyl]-3-(3,4-difluorophenyl)urea], the IC50 runs as follows: under setting [1], 7080 nM; under setting [2], 6000 nM.

For the molecule `S=C(NCCCCCCOc1ccc(Cl)cc1)Nc1cccnc1` [Example R39, 1-[6-(4-Chlorophenoxy)hexyl]-3-pyridin-3-ylthiourea], the IC50 is 1620 nM under setting [1] and > 10000 nM under setting [2].

`O=C(CN1CCCc2ccccc21)Nc1ccc(C(=O)NCc2cccnc2)cc1` [Example R17, 4-[(3,4-Dihydroquinolin-1(2H)-ylacetyl)amino]-N-(pyridin-3-ylmethyl)benzamide]: the IC50 under setting [1] turned out to be 2050 nM and the IC50 under setting [2] is > 50000 nM.

For `O=C(NCc1cccnc1)Nc1ccc(NS(=O)(=O)c2ccc(Cl)cc2Cl)cc1` [Example R75, 2,4-dichloro-N-(4-{[(pyridin-3-ylmethyl)carbamoyl]amino}phenyl)benzene-sulfonamide], the IC50 reads like this: under setting [1], 30.3 nM; under setting [2], > 5000 nM.

Turning to `N#C/N=C(\NCCCCCCOc1ccc(Cl)cc1)Nc1ccnc(Cl)c1` [Example R37, 1-[6-(4-Chlorophenoxy)hexyl]-2-(2-chloropyridin-4-yl)-3-cyanoguanidine], the IC50 runs as follows: under setting [1], 168 nM; under setting [2], 5000 nM.

As for `O=C(NCc1cccnc1)Nc1ccc(OCc2ccccc2-c2ccccc2)cc1` [Example R77, 1-[4-(biphenyl-2-ylmethoxy)phenyl]-3-(pyridin-3-ylmethyl)urea], the IC50 under setting [1] is 1.7 nM and the IC50 under setting [2] was > 5000 nM.

As for `O=C(NCc1cccnc1)Nc1ccc(CNc2ccccc2-c2ccccc2)cc1` [Example R86, 1-{4-[(Biphenyl-2-ylamino)methyl]phenyl}-3-(pyridin-3-ylmethyl)urea], the IC50 runs as follows: under setting [1], 0.4 nM; under setting [2], 4000 nM.

In the case of `O=C(NCc1cccnc1)Nc1ccc(NS(=O)(=O)c2cc(C(F)(F)F)ccc2C(F)(F)F)cc1` [Example R67], the IC50 reads like this: under setting [1], 0.3 nM; under setting [2], > 1000 nM.

On to `O=C(NCc1cccnc1)Nc1ccc(NS(=O)(=O)c2ccc(F)cc2Br)cc1` [Example R62, 2-bromo-4-fluoro-N-(4-{[(pyridin-3-ylmethyl)carbamoyl]amino}phenyl)benzene-sulfonamide], for which the IC50 by setting is: under setting [1], 12.9 nM; under setting [2], > 1000 nM.

Consider `CC(=O)Nc1cccc(-c2ccccc2CNc2ccc(C(=O)NCc3cccnc3)cc2)c1` [Example R26, 4-({[3′-(Acetylamino)biphenyl-2-yl]methyl}amino)-N-(pyridin-3-ylmethyl)benzamide], for which the IC50 reads like this: under setting [1], 26.9 nM; under setting [2], 25000 nM.

Consider `O=C(NCc1cccnc1)Nc1ccc(C2(Oc3ccccc3-c3ccccc3)CC2)cc1` [Example R87, 1-{4-[1-(Biphenyl-2-yloxy)cyclopropyl]phenyl}-3-(pyridin-3-ylmethyl)urea], for which the IC50 reads like this: under setting [1], 1.1 nM; under setting [2], 3000 nM.

Turning to `N#C/N=C(/NCCCCNC(=O)COc1ccccc1-c1ccccc1)Nc1ccncc1` [Example R78, 2-(Biphenyl-2-yloxy)-N-(4-{[(Z)-(cyanoamino)(pyridin-4-ylamino)methylidene]amino}butyl)acetamide], the IC50 is, setting by setting: under setting [1], 0.5 nM; under setting [2], > 5000 nM.

With `C/C=C/CN(Cc1ccccc1Cl)c1ccc(C(=O)NCc2cccnc2)cc1` [Example R43, 4-[(2E)-But-2-en-1-yl(2-chlorobenzyl)amino]-N-(pyridin-3-ylmethyl)benzamide], the IC50 runs as follows: under setting [1], 98.6 nM; under setting [2], > 10000 nM.

As to `O=C(NCc1cccnc1)c1ccc(OCc2ccccc2-c2ccccc2)cc1` [Example R23, 4-(Biphenyl-2-ylmethoxy)-N-(pyridin-3-ylmethyl)benzamide], the IC50 runs as follows: under setting [1], 539 nM; under setting [2], > 50000 nM.

On to `O=C(NCc1cccnc1)c1ccc(OCc2ccccc2-c2cnc3ccccc3c2)cc1` [Example R48, N-(Pyridin-3-ylmethyl)-4-{[2-(quinolin-3-yl)benzyl]oxy}benzamide], for which the IC50 under setting [1] stood at 38.8 nM and the IC50 under setting [2] was > 10000 nM.

Turning to `O=C(NCc1cccnc1)Nc1ccc(COc2ccccc2-c2ccncc2)cc1` [Example R81, 1-(Pyridin-3-ylmethyl)-3-(4-{[2-(pyridin-4-yl)phenoxy]methyl}phenyl)urea], the IC50 under setting [1] came out at 5.4 nM and the IC50 under setting [2] is > 5000 nM.

Take `C#CCN(Cc1cc2c(=O)n(C)c(CN3CCN(C)CC3)nc2cc1Cl)c1ccc(C(=O)NCc2ccccn2)cc1` [Example R4, 4-[({7-Chloro-3-methyl-2-[(4-methylpiperazin-1-yl)methyl]-4-oxo-3,4-dihydroquinazolin-6-yl}methyl)(prop-2-yn-1-yl)amino]-N-(pyridin-2-ylmethyl)benzamide]: the IC50 is 276 nM under setting [1] and > 10000 nM under setting [2].

Regarding `O=C(NCCCCCCOc1ccc(Cl)cc1)Nc1ccncc1` [Example R79, 1-[6-(4-Chlorophenoxy)hexyl]-3-pyridin-4-ylurea], the IC50 is, setting by setting: under setting [1], 88.9 nM; under setting [2], > 5000 nM.

With `N#C/N=C(\NCCCNS(=O)(=O)c1ccccc1-c1ccccc1)Nc1ccncc1` [Example R66, N-{3-[N″-cyano-N′-(pyridin-4-yl)carbamimidamido]propyl}biphenyl-2-sulfonamide], the IC50 is, setting by setting: under setting [1], 1.3 nM; under setting [2], 5000 nM.

For the molecule `C#CCN(Cc1ccc2nc(C)n(C)c(=O)c2c1)c1ccc(C(=O)NCc2cccnc2)cc1` [Example R47, 4-{[(2,3-Dimethyl-4-oxo-3,4-dihydroquinazolin-6-yl)methyl](prop-2-yn-1-yl)amino}-N-(pyridin-3-ylmethyl)benzamide], the IC50 by setting is: under setting [1], 33.5 nM; under setting [2], > 10000 nM.

In the case of `O=C(NCc1cccnc1)Nc1ccc(NS(=O)(=O)c2ccc([N+](=O)[O-])c(C(F)(F)F)c2)cc1` [Example R50, 4-Nitro-N-(4-{[(pyridin-3-ylmethyl)carbamoyl]amino}phenyl)-3-(trifluoromethyl)benzenesulfonamide], the IC50 was 6.7 nM under setting [1] and > 10000 nM under setting [2].

As to `O=C(CN1CCc2ccccc21)Nc1ccc(C(=O)NCc2cccnc2)cc1` [Example R16, 4-[(2,3-Dihydro-1H-indol-1-ylacetyl)amino]-N-(pyridin-3-ylmethyl)benzamide], the IC50 was 3290 nM under setting [1] and > 50000 nM under setting [2].

As for `O=C(NCCc1cccnc1)c1ccc(NCc2ccccc2Br)cc1` [Example R34, 4-[(2-Bromobenzyl)amino]-N-[2-(pyridin-3-yl)ethyl]benzamide], the IC50 runs as follows: under setting [1], 1160 nM; under setting [2], > 50000 nM.

For `CCn1cc(-c2ccccc2S(=O)(=O)Nc2ccc(NC(=O)NCc3cccnc3)cc2)cn1` [Example R89, 2-(1-Ethyl-1H-pyrazol-4-yl)-N-(4-{[(pyridin-3-ylmethyl)carbamoyl]amino}phenyl)benzene-sulfonamide], the IC50 runs as follows: under setting [1], 34.2 nM; under setting [2], > 5000 nM.

Take `O=C(NCc1cccnc1)Nc1ccc(NCc2ccccc2Cl)cc1` [Example R31, 1-{4-[(2-Chlorobenzyl)amino]phenyl}-3-(pyridin-3-ylmethyl)urea]: the IC50 is, setting by setting: under setting [1], 1270 nM; under setting [2], > 50000 nM.

Take `O=C(NCc1cccnc1)Nc1ccc(COc2ccccc2-c2ccsc2)cc1` [Example R80, 1-(Pyridin-3-ylmethyl)-3-(4-{[2-(thiophen-3-yl)phenoxy]methyl}phenyl)urea]: the IC50 was 0.9 nM under setting [1] and > 5000 nM under setting [2].
